Values joined by “and” are separate entries in the source; they are usually repeats but may differ in a detail not shown here. Equal entries are not always repeated. Structures can show the parent of a compound that is named as a salt.
How the values were obtained:
[1] = Osmolality measurements: contribution of amphipathic base to osmotic pressure of salt solutions (aggregation); format: physicochemical; details: for mOsm versos mM (slope); extent of dissociation: slope of osmolality (mOsm) versus concentration (mM); for % of expected value of osmolality contribution / Level of aggregation / Expected contribution of 25 mM amphipathic base to osmolality (calibrated in DDW and NaCl): 25 mM base; for Expected contribution of 25 mM amphipathic base to osmolality (calibrated in DDW and NaCl): pure water or NaCl solutions; for Osmolality of agent: 25 mM in DDW (pure water)
Protocol: Level of aggregation of the exemplified agents was evaluated by measuring osmotic pressure. Osmotic pressure is a colrgative property, depending on the actual concentration (particles per unit volume) of a solution. Thus, in case of aggregate formation in a solution, the actual concentration of the solution will be lower than the theoretical concentration of the solution, which will be evident by a lower than expected osmotic pressure.
For osmotic pressure measurements, double distilled water (DDW) obtained using Water ProPlus (Labconco, Kansas City, Mo., USA) was used for all solutions. Osmolality was measured using a 5500 Vapor Pressure Osmometer (Wescor Inc., Logan, Utah, USA) or freezing point osmometer μOSMETIE MicroOsmometer of Precision Systems (atich, MA, USA). Calibration curves of TMN, AO, and BUP osmolality in the range of 10-40 mM in pure water were used to describe the relationship between concentration and osmotic pressure of all compounds.
The effect of salts on the osmotic pressure of the amphipathic base (25 mM) was also examined by comparing the effect of NaCl with that of various ammonium salts. As a control, the osmotic pressure of each salt alone was also measured.

[2] = Conductivity measurements of salts; format: physicochemical; details: salt 50 mM in DDW
Protocol: Solutions in concentration range of 0.5-50 mM of NaCl and ammonium salts were prepared in DDW and measured in an “Oyster” conductivity meter (KTech).

[3] = Partition coefficient (Kp) octanol/water; format: physicochemical
Excerpt: Other parameters that may influence kinetics of release include the lipophilicity of the loaded agent and the liposome trapped volume. The higher the lipophilicity, the faster will be the release rate of the agent from the liposome. The lipophilicity of a compound may be reflected by its partition coefficient (Kp) is between octanol and water.

[4] = Aggregation of BUP and AO with dextran sulfate (DS); format: physicochemical; details: for Mole ratio weak base/DS at which aggregation (precipitation) starts: dextran sulfate
Excerpt: The dependence of the aggregation process on the loaded molecule was shown by the examples of BUP and AO. […] This however can be modified through the use of sodium salt of dextran sulfate as an additional counter ion. […]

[5] = Kinetics of TMN leakage from egg PC MLV; details: for Leakage from liposomes: 4° C.

SMILES	mOsm versos mM (slope); extent of dissociation [1]	% of expected value of osmolality contribution ([1]; ammonium chloride 40 mM) [%]	% of expected value of osmolality contribution ([1]; ammonium chloride 80 mM) [%]	Level of aggregation ([1]; ammonium chloride 80 mM)	% of expected value of osmolality contribution ([1]; ammonium citrate 40 mM) [%]	% of expected value of osmolality contribution ([1]; ammonium citrate 80 mM) [%]	Level of aggregation ([1]; ammonium citrate 80 mM)	% of expected value of osmolality contribution ([1]; ammonium glucuronate 40 mM) [%]	% of expected value of osmolality contribution ([1]; ammonium glucuronate 80 mM) [%]	Level of aggregation ([1]; ammonium glucuronate 80 mM)	% of expected value of osmolality contribution ([1]; ammonium phosphate 40 mM) [%]	% of expected value of osmolality contribution ([1]; ammonium phosphate 80 mM) [%]	% of expected value of osmolality contribution ([1]; ammonium sulfate 40 mM) [%]	% of expected value of osmolality contribution ([1]; ammonium sulfate 80 mM) [%]	Level of aggregation ([1]; ammonium sulfate 80 mM)	Expected contribution of 25 mM amphipathic base to osmolality (calibrated in DDW and NaCl) [1]	Osmolality of agent [1] [mOsm]	Measured contribution of 25 mM base to osmolality ([1]; ammonium chloride 40 mM) [mOsm]	Measured contribution of 25 mM base to osmolality ([1]; ammonium chloride 80 mM)	Measured contribution of 25 mM base to osmolality ([1]; ammonium citrate 40 mM) [mOsm]	also measured
N.N.O=P(O)(O)O [(NH4)2HPO4, ammonium phosphate, dibasic]	2.83																				
N.N.O=S(=O)(O)O [(NH4)2SO4, ammonium sulfate]	2.97																				
N.N.N.O=C(O)CC(O)(CC(=O)O)C(=O)O [(NH4)3 citrate, ammonium citrate, tribasic]	3.45																				Conductivity [2]: 11.96
CN(C)c1ccc2cc3ccc(N(C)C)cc3nc2c1 [AO, Acridine orange hemi(zinc chloride) salt]		100	100	None//None	96	90	Low	100	100	None//None	92	79	94	85	Low	48±4 mOsm and 48 mOsm	48	49	51 mOsm and 48 mOsm	46	Measured contribution of 25 mM base to osmolality ([1]; ammonium citrate 80 mM): 43 mOsm; Measured contribution of 25 mM base to osmolality ([1]; ammonium glucuronate 40 mM): 48 mOsm; Measured contribution of 25 mM base to osmolality ([1]; ammonium glucuronate 80 mM): 50 mOsm and 48 mOsm; Measured contribution of 25 mM base to osmolality ([1]; ammonium phosphate 40 mM): 44 mOsm; Measured contribution of 25 mM base to osmolality ([1]; ammonium phosphate 80 mM): 41 mOsm and 38 mOsm; Measured contribution of 25 mM base to osmolality ([1]; ammonium sulfate 40 mM): 45 mOsm; Measured contribution of 25 mM base to osmolality ([1]; ammonium sulfate 80 mM): 44 mOsm and 41 mOsm; Partition coefficient (Kp) octanol/water ([3]; pH 5.5, 120 mM (NH4)2SO4): 9.00 (at pH 5.5, 120 mM (NH4)2SO4); Ratio at saturation of precipitation ([4]; DS 8,000 Da): 40; Ratio at saturation of precipitation ([4]; DS 10,000 Da): 50; Ratio at which aggregation reaches a plateau ([4]; DS 10,000 Da): 50 nmole AO or BUP per 1 mmole DS; Mole ratio weak base/DS at which aggregation (precipitation) starts [4]: 1
CCCCN1CCCCC1C(=O)Nc1c(C)cccc1C (stereo not drawn) [BUP, bupivacaine]		97	100	None//None	100	91	None	100	100	None//None	97	84	97	88	None	32±5 mOsm and 32 mOsm	32	31	30 mOsm and 32 mOsm	32	Level of aggregation ([1]; ammonium phosphate 80 mM): None//|Low; Measured contribution of 25 mM base to osmolality ([1]; ammonium citrate 80 mM): 25 mOsm and 29 mOsm; Measured contribution of 25 mM base to osmolality ([1]; ammonium glucuronate 40 mM): 33 mOsm; Measured contribution of 25 mM base to osmolality ([1]; ammonium glucuronate 80 mM): 31 mOsm and 32 mOsm; Measured contribution of 25 mM base to osmolality ([1]; ammonium phosphate 40 mM): 30 mOsm; Measured contribution of 25 mM base to osmolality ([1]; ammonium phosphate 80 mM): 30 mOsm and 27 mOsm; Measured contribution of 25 mM base to osmolality ([1]; ammonium sulfate 40 mM): 31 mOsm; Measured contribution of 25 mM base to osmolality ([1]; ammonium sulfate 80 mM): 29 mOsm and 28 mOsm; Partition coefficient (Kp) octanol/water ([3]; pH 6, 250 mM (NH4)2SO4): 0.35 (at pH 6, 250 mM (NH4)2SO4); Ratio at which aggregation reaches a plateau ([4]; DS 10,000 Da): 50 nmole AO or BUP per 1 mmole DS; Mole ratio weak base/DS at which aggregation (precipitation) starts [4]: 1.0
N.O=C[C@H](O)[C@@H](O)[C@H](O)[C@H](O)C(=O)O [NH4 glucuronate, Ammonium glucuronate]	1.62																				Conductivity [2]: 3.88 mS/cm
Cl.N [NH4Cl, Ammonium chloride]	1.96																				
[Cl-].[Na+] [NaCl]	2.00																				
CC1(C)CC(N)CC(C)(C)N1[O] [TMN, 2,2,6,6-tetramethylpiperidine-4-amino-1-oxyl]		100	60	medium	62	20	high	95	90	None	71	20	19	0	complete	21 mOsm	21	21	12 mOsm	13	Level of aggregation ([1]; ammonium chloride 40 mM): Low; Level of aggregation ([1]; ammonium citrate 40 mM): Medium; Level of aggregation ([1]; ammonium glucuronate 40 mM): None; Level of aggregation ([1]; ammonium phosphate 40 mM): Medium; Level of aggregation ([1]; ammonium phosphate 80 mM): high; Level of aggregation ([1]; ammonium sulfate 40 mM): High; Aggregation in NaCl solutions ([1]; NaCl): lack of aggregate formation; Ranking of extent of aggregation with ammonium salts ([1]; Tables Ia, Ib, Ic): ammonium sulfate>ammonium citrate=ammonium phosphate>>ammonium chloride>ammonium glucuronate; Measured contribution of 25 mM base to osmolality ([1]; ammonium citrate 80 mM): 5 mOsm; Measured contribution of 25 mM base to osmolality ([1]; ammonium glucuronate 40 mM): 20 mOsm; Measured contribution of 25 mM base to osmolality ([1]; ammonium glucuronate 80 mM): 19 mOsm; Measured contribution of 25 mM base to osmolality ([1]; ammonium phosphate 40 mM): 15 mOsm; Measured contribution of 25 mM base to osmolality ([1]; ammonium phosphate 80 mM): 5 mOsm; Measured contribution of 25 mM base to osmolality ([1]; ammonium sulfate 40 mM): 4 mOsm; Measured contribution of 25 mM base to osmolality ([1]; ammonium sulfate 80 mM): 0 mOsm; Partition coefficient (Kp) octanol/water ([3]; pH 7, 150 mM (NH4)2SO4): 0.04 (at pH 7, 150 mM (NH4)2SO4); Leakage from liposomes ([5]; ammonium chloride gradient): less than 10%; Leakage from liposomes ([5]; ammonium glucuronate gradient): less than 10%; Leakage from liposomes ([5]; ammonium sulfate gradient, until 144 hr): no TV leakage was observed; Order of encapsulation stability by ammonium salt ([5]; 25° C. and 37° C.): (NH4)2SO4>>NH4Cl>NH4 glucuronate
